This is an account of results in paper PMC9394284, “Discovery of Novel Dual Adenosine A2A and A1 Receptor Antagonists with 1H-Pyrazolo[3,4-d]pyrimidin-6-amine Core Scaffold as Anti-Parkinson’s Disease Agents” (Pharmaceuticals, 2022).

Data set [1] can be described thus: metabolic stability in cryopreserved human hepatocytes. On the procedure:
(§1) Metabolic stability of 11o was determined in cryopreserved hepatocytes from mice, rats, dogs, monkeys and human according to the SOPs of Frontage Laboratories Inc. Briefly, cryopreserved hepatocytes for pre-clinical animals and for human (BioIVT, Westbury, NY, USA) were thawed in a 37 °C water bath with gentle shaking until ice had almost melted. The suspensions were immediately transferred to a centrifuge tube (50 mL) containing pre-warmed thawing media at 37 °C with gentle handshaking to prevent the cells from settling. Cell suspensions were centrifuged at 50× g and 4 °C for 5 min. The supernatant was discarded and the pellets were resuspended in prewarmed incubation media (5 mL) at 37 °C. The percentage of viable cells in the suspension was determined by Trypan blue staining method to ensure viability of ≥70 %. […] The samples were centrifuged and aliquots of the supernatant were analyzed for parent compounds by LC/MS/MS using suitable multiple reaction monitoring (MRM) transitions. […] The disappearance of 11o and midazolam was monitored by LC/MS/MS (MRM) analysis of the hepatocyte extracts at each time point. The peak area ratio of the analyte to internal standard was obtained for each sample and the rate of disappearance of 11o was assessed by comparing the peak area ratios at various time points to the peak area ratio obtained at t = 0. The t1/2 is obtained (using the linear portion of semi-log plot of the area ratio vs. time) and the CLint values determined using well-stirred model.

For another data set, the target named is T1, A2B receptors (Homo sapiens, UniProt P29275).
T1 construct: purchased PerkinElmer ES-013-M
T1 sequence (P29275 1-332): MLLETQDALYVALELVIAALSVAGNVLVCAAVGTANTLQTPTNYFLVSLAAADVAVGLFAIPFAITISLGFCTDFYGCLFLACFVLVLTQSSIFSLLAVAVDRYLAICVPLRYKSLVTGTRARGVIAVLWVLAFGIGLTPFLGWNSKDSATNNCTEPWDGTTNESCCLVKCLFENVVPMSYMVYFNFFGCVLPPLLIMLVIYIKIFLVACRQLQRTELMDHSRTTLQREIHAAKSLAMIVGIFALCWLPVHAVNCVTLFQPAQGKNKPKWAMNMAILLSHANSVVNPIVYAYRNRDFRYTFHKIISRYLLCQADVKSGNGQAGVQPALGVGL
Nature of the data set: radioligand binding to human A2B receptors, HEK-293 membranes, [3H]MRS1754. The method, then:
The radioligand-binding assays for adenosine receptors were performed at Eurofins Discovery Services (Panlabs, Taiwan). Briefly, stock solutions of the compounds were prepared in DMSO and further diluted with the incubation buffer to the desired concentration. Final DMSO concentrations in the assay were 1.0%. For adenosine A1 screening, a 10 μg aliquots of membrane preparations from human recombinant CHO-K1 cells stably expressing A1 receptors (CHO-K1-hA1AR clone3, EPDST, R200510) were incubated with 1 nM [^3H]DPCPX in incubation buffer (20 mM HEPES, pH 7.4, 10 mM MgCl2, 100 mM NaCl 1.40 nM) for 90 min at 25 °C. Nonspecific binding was estimated in the presence of 100 μM R(-)-PIA. Membranes were filtered and washed 3 times and the filters were counted to determine specifically bound [^3H]DPCPX. Chemical compounds were screened at 10 μM. For A2A screening, membrane preparations from human recombinant HEK-293 cells stably expressing A2A receptors (PerkinElmer, RBHA2AM) were incubated with 0.05 μM [^3H]CGS-21680 in incubation buffer (50 mM Tris-HCl, pH 7.4, 10 mM MgCl2, 1 mM EDTA, 2 U/mL Adenosine Deaminase) for 90 min at 25 °C. Nonspecific binding was estimated in the presence of 50.0 μM NECA. Membranes were filtered and washed 3 times and the filters were counted to determine [^3H]CGS-21680 specifically bound. […] Membranes were filtered and washed 3 times and the filters were counted to determine [^3H]MRS1754 specifically bound. […]
IC50 values were determined by a nonlinear, least-squares regression analysis using MathIQ^TM (ID Business Solutions Ltd., Guildford, UK). Where inhibition constants (Ki) were presented, the Ki values were calculated using Cheng and Prusoff equation [18] using the observed IC50 of the compound, the concentration of radioligand employed in the assay, and the historical values for the KD of the ligand (obtained experimentally at Eurofins Panlabs, Inc.). The Hill coefficient (nH), which defines the slope of the competitive binding curve, was calculated using MathIQ^TM.

The target of a further data set is T2, A1 adenosine receptor (Homo sapiens, UniProt P30542).
T2 sequence (P30542 1-326): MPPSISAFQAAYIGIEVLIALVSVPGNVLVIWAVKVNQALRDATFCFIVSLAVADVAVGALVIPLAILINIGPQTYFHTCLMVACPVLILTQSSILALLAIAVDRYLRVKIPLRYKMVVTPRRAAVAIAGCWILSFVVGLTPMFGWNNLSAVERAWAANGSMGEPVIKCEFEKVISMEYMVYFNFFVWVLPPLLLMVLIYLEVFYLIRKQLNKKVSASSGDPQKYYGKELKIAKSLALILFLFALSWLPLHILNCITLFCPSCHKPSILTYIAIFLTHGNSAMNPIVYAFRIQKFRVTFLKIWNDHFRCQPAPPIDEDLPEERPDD
Nature of the data set: cyclic AMP HTRF functional assay, CHO-K1 (A1). Format: cell-based. Particulars: CHO-K1 cells. The method, then:
Next, the functional activity of 11o against A1 and A2A adenosine receptors was evaluated using c-AMP assay in CHO-K1 (A1) and HEK-293 (A2A) cells.
For functional studies, A1 and A2A receptor cyclic AMP HTRF (homogeneous time resolved fluorescence) assay was performed at EuroscreenFast (Charleroi, Belgium) using CHO-K1 (A1) and HEK293 (A2A) stable cell line with CPA (A1) and NECA (A2A) as reference agonist and DPCPX (A1) and ZM241385 (A2A) as reference antagonist compound.
A general note: In TR-FRET formats the signal depends on donor and acceptor labels being close together.

A short description of data set [2]: metabolic stability in cryopreserved monkey hepatocytes. The method, then:
as §1

Where [3] appears, read: human, cryopreserved hepatocytes in suspension.
Setting [4] is: average of duplicate experiments.

As usually defined, the half-life is how long it takes for the measured level to halve. Usually hepatocyte CLint stands for the rate of metabolic loss divided by the concentration. The CLint scaled is the rate of metabolic loss divided by the concentration. The IC50 is the point on the concentration scale where inhibition reaches its midpoint. A word on the Ki: it is a dissociation constant, usually derived from enzyme kinetics or from competition with a known ligand. Consider `Cc1cc(Cn2ncc3c(-c4cccc(C#N)c4F)nc(N)nc32)ccc1N` [11o, 3-(6-Amino-1-(4-amino-3-methylbenzyl)-1H-pyrazolo[3,4-d]pyrimidin-4-yl)-2-fluorobenzonitrile], for which, in data set [1] (human hepatocytes, 1 μM 11o), the “Extrapolated Clearance, CL” value is given as 9.58 mL/min/kg. The “Intrinsic Clearance” value in data set [1] (human hepatocytes, 1 μM 11o) is on record as 0.00377 mL/min/10^6 Cells; in data set [2] (monkey hepatocytes, 1 μM 11o), 0.00558 mL/min/10^6 Cells. In addition, the half-life at 1 μM amounted to 3.07 h in data set [1] (setting [3]) and 2.07 h in data set [2] (monkey, cryopreserved hepatocytes in suspension). The same compound yielded an intrinsic metabolic clearance (hepatocyte CLint) at 1 μM in data set [1] (setting [3]) of 3.8 µL/min/1e6 cells. In addition, the intrinsic clearance (CLint scaled) at 1 μM is 9.6 mL/min/kg in data set [1] (human, cryopreserved hepatocytes in suspension, Extrapolated Clearance, CL, human hepatocytes, 1 μM 11o) and 20.1 mL/min/kg in data set [2] (cynomolgus monkey, cryopreserved hepatocytes in suspension). In addition, the “CLint in human hepatocytes relative to midazolam” value in data set [1] (human, hepatocytes) is given as “less than 40 % of midazolam”. Further, at A2B receptors, the “nH (Hill coefficient), A2B” value turned out to be 0.98. The concentration for half-maximal inhibition (IC50) came to 1220 nM at A2B receptors (setting [4]) and 98.8 nM at A1 adenosine receptor (read-out: IC50, A1 functional antagonism (c-AMP)). Moreover, on A2B receptors (setting [4]), affinity was put at a Ki of 400 nM. Besides, the “functional activity at A1 receptor” value on A1 adenosine receptor is listed as “full antagonism”.
